Article PMC11258189, “Estrogenic, androgenic, and genotoxic activities of zearalenone and deoxynivalenol in in vitro bioassays including exogenous metabolic activation” (Mycotoxin Research, 2024)
Read-outs that look alike come from different tables or passages of the source.

Assays:
estrogen receptor (ER) [1] = assay type: cell-based, human
estrogen receptor (ER) [2] = system: estrogen receptor (ER)
human androgen receptor [3] = target: T1, human androgen receptor (Homo sapiens, UniProt P10275); assay type: cell-based
T1 construct: host or cells: Chinese hamster ovary (CHO) cells, AR-EcoScreen GR KO M1, stably transfected, glucocorticoid receptor knocked out
T1 sequence (P10275 1-920): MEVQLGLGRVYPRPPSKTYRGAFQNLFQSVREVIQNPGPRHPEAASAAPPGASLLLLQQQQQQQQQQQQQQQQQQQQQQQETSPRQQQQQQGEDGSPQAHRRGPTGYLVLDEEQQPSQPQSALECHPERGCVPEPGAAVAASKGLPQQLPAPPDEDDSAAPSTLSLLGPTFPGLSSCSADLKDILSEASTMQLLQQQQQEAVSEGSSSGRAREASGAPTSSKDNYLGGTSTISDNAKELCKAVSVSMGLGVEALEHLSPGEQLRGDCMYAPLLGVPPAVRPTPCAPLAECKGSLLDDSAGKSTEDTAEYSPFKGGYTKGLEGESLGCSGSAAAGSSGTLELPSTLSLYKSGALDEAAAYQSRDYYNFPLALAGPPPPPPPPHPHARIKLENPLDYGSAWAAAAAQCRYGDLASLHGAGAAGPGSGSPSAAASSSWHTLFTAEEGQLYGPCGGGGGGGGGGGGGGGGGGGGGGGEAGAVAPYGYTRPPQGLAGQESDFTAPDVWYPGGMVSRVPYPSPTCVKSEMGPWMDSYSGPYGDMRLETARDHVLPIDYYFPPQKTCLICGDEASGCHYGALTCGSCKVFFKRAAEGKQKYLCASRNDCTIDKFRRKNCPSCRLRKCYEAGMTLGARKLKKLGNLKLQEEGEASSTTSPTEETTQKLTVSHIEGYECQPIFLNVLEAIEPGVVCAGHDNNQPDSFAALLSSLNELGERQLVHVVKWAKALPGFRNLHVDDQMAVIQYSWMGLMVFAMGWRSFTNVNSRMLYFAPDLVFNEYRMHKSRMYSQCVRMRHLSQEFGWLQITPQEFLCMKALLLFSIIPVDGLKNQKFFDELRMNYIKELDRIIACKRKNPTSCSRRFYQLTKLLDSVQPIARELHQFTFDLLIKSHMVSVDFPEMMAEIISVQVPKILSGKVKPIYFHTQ

human androgen receptor [4] = target: T1, human androgen receptor; assay type: cell-based; remark: listed apart in the source
[5] = design: method as in Drzymala et al. [2015]; conditions: ref Drzymala et al. [2015]; cited from earlier work
[6] = DON compounds, S9 + PHI + PHII cofactors, [95% CI]
[7] = DON compounds, S9 + PHII cofactors, [95% CI]
[8] = DON compounds, S9 alone, [95% CI]
[9] = DON compounds, no MAS, [95% CI]
[10] = without exogenous MAS, initial concentration-range finding trials, 24 h
[11] = DON compounds, S9 + PHI + PHII cofactors
[12] = DON compounds, S9 + PHII cofactors

Row | Structure (SMILES) | ER antagonism IC30 (estrogen receptor (ER) [1]; [6]) | ER antagonism IC30 (estrogen receptor (ER) [1]; [7]) | ER antagonism IC30 (estrogen receptor (ER) [1]; [8]) | ER antagonism IC30 (estrogen receptor (ER) [1]; [9]) | ER antagonism IC30 (estrogen receptor (ER) [1]; [10]) | ER agonism EC10 (estrogen receptor (ER) [2]; [11]) | ER agonism EC10 (estrogen receptor (ER) [2]; [12]) | ER agonism EC10 (estrogen receptor (ER) [2]; [8]) | ER agonism EC10 (estrogen receptor (ER) [2]; [9]) | ER agonism EC10 (estrogen receptor (ER) [2]; [10]) | AR antagonism IC30 (human androgen receptor [3]; [11]) | AR antagonism IC30 (human androgen receptor [3]; [12]) | AR antagonism IC30 (human androgen receptor [3]; DON compounds, S9 alone) | AR antagonism IC30 (human androgen receptor [3]; DON compounds, no MAS) | AR antagonism IC30 (human androgen receptor [3]; [10]) | AR agonism EC10 (human androgen receptor [4]; [6]) | AR agonism EC10 (human androgen receptor [4]; [7]) | AR agonism EC10 (human androgen receptor [4]; [8]) | AR agonism EC10 (human androgen receptor [4]; [9]) | AR agonism EC10 (human androgen receptor [4]; [10]) | further results
1 | CC(=O)O[C@@H]1C[C@]2(C)[C@@]3(CO)[C@H](O)C(=O)C(C)=C[C@H]3O[C@H]1[C@@]21CO1 [3-Ac-DON, 3-acetyl deoxynivalenol] | <LOD | <LOD | <LOD | <LOD | <LOD | <LOD | <LOD | 0.53 [0.49,0.59] µM | 0.45 [0.41,0.49] µM | 310,000 pM | <LOD | <LOD | <LOD | <LOD | <LOD | 0.91 [0.65,1.35] µM | 0.63 [0.52,0.78] µM | 1.07 [0.91,1.23] µM | 1.11 [0.95,1.26] µM | 1.31 µM | Estrogenicity relative to α-ZEL (times lower) (estrogen receptor (ER) [2]): ~10^5 times; ER agonism, response as % of the maximum response of E2 in the assay (estrogen receptor (ER) [2]; without MAS): 30%; ER bioassay EC10 (estrogenic) (estrogen receptor (ER) [2]; without MAS, abstract): 310 nM
2 | CC(=O)OC[C@]12[C@H](O)C(=O)C(C)=C[C@H]1O[C@@H]1[C@H](O)C[C@@]2(C)[C@]12CO2 [15-Ac-DON, 15-acetyl deoxynivalenol] | 0.48 [0.30,0.72] µM | 0.24 [0.18,0.32] µM | 1.11 [0.81,1.38] µM | 1.09 [0.98, 1.20] µM | 0.99 µM | <LOD | <LOD | <LOD | <LOD | <LOD | <LOD | <LOD | <LOD | <LOD | <LOD | 0.52 [0.45,0.62] µM | 0.50 [0.45,0.56] µM | 0.70 [0.62,0.76] µM | 0.81 [0.74,0.87] µM | 0.77 µM | 
3 | CC1CCCC(=O)CCC/C=C/c2cc(O)c(O)c(O)c2C(=O)O1 (centres unmarked) [15-OH-ZEN] |  |  |  |  |  |  |  |  |  |  |  |  |  |  |  |  |  |  |  |  | Estrogenic potency compared to ZEN, set at 1 [5]: 0.02
